Source: patent EP2439197A1, “Substituted benzimidazole derivatives as melanocortin 4 receptor antagonists” (Santhera Pharmaceuticals (Schweiz) AG, priority 2010, dated 2012)
pEC50, pIC50: −log10 of the molar value. Read-outs that look alike come from different tables or passages of the source.

Columns and labels:
hMC-4R [1] = biological target: T1, hMC-4R (Homo sapiens, UniProt P32245); experiment: membrane binding assay, competition with fluorescence labeled NDP-alpha-MSH (fluorescence polarization); conditions: for IC50: HEK293 cell membrane preparations expressing human melanocortin receptors, read-out: hMC-4R binding assay IC50/µM
T1 construct: expressed in transfected cells; host or cells: HEK293 cells (membrane preparations)
T1 sequence (P32245 whole entry): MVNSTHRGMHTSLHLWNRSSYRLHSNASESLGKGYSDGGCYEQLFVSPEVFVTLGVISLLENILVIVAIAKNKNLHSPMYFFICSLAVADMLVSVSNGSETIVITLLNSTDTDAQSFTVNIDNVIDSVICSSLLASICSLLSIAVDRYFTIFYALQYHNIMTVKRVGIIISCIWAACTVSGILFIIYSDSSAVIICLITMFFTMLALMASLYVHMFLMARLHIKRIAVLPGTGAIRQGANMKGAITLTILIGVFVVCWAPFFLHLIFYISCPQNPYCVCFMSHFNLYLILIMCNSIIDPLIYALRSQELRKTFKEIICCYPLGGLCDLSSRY
Method: A membrane binding assay is used to identify competitive inhibitors of fluorescence labeled NDP-alpha-MSH binding to HEK293 cell membrane preparations expressing human melanocortin receptors.
The test compound or unlabeled NDP-alpha-MSH is dispensed at varying concentrations to a 384 well microtiter plate. Fluorescence labeled NDP-alpha-MSH is dispensed at a single concentration, followed by addition of membrane preparations. The plate is incubated for 5 h at room temperature.
The degree of fluorescence polarization is determined with a fluorescence polarization microplate reader.

hMC-4R [2] = biological target: T1, hMC-4R; experiment: functional assay, homogeneous membrane based cAMP fluorescence polarization assay; type: biochemical; conditions: for Emax: read-out: % activation functional assay

## CC(C)CCN(CCC(C)C)C(=O)c1ccc2nc(C3CCN(C)CC3)n(CCCN3CCCC3)c2c1 [Example 24]
hMC-4R [1]
  pIC50: > 7.00
hMC-4R [2]
  pEC50: > 7.00
  Emax: -44%

## CC(C)CCN(CCC(C)C)C(=O)c1ccc2nc(-c3ccc(=O)[nH]c3)n(CCCN3CCCCC3)c2c1 [Example 22]
hMC-4R [1]
  IC50: < 0.1 µM
hMC-4R [2]
  Emax: -12%

## COc1ccc(-c2nc3ccc(C(=O)N(CCC(C)C)CCC(C)C)cc3n2CC(O)CN2CCCC2)cn1 (stereo not shown) [Example 3]
hMC-4R [1]
  IC50: < 0.1 µM
hMC-4R [2]; membrane preparations from HEK293 cells, cAMP production, read-out: hMC-4R functional assay EC50/µM
  EC50: 0.1 to 1 µM
hMC-4R [2]
  Emax: -25%

## CC(C)CCN(CCC(C)C)C(=O)c1ccc2nc(C3CN(C(=O)OC(C)(C)C)C3)n(CCCN3CCCC3)c2c1 [Example 16]
hMC-4R [1]
  IC50: < 0.1 µM
hMC-4R [2]
  Emax: -9%

## COc1cc(Cc2nc3ccc(C(=O)N(CCC(C)C)CCC(C)C)cc3n2CCCN2CCCC2)ccn1 [Example 33]
hMC-4R [1]
  pIC50: > 7.00
hMC-4R [2]
  Emax: 0%

## CC(C)CCN(CCC(C)C)C(=O)c1ccc2nc(-c3ccc(=O)[nH]c3)n(CCCN3CCCC3)c2c1 [Example 21]
hMC-4R [1]
  pIC50: > 7.00
hMC-4R [2]
  Emax: -14%

## CC(C)CCN(CCC(C)C)C(=O)c1ccc2nc(CC3CCN(CCO)CC3)n(CCCN3CCCC3)c2c1 [Example 14]
hMC-4R [1]
  pIC50: > 7.00
hMC-4R [2]
  Emax: -18%

## CC(C)CCN(CCC(C)C)C(=O)c1ccc2nc(CC3CCN(C(=O)OC(C)(C)C)CC3)n(CCCN3CCCC3)c2c1 [Example 13]
hMC-4R [1]
  pIC50: > 7.00
hMC-4R [2]
  Emax: -7%

## CC(C)CCN(CCC(C)C)C(=O)c1ccc2nc(C3CCN(C)C(=O)C3)n(CCCN3CCCC3)c2c1 (stereo not shown) [Example 36]
hMC-4R [1]
  pIC50: > 6.00
hMC-4R [2]
  Emax: -5%

## CC(C)CCN(CCC(C)C)C(=O)c1ccc2nc(C3CN(C)C3)n(CCCN3CCCC3)c2c1 [Example 32]
hMC-4R [1]
  pIC50: > 7.00
hMC-4R [2]
  pEC50: > 7.00
  Emax: -18%

## CC(C)CCN(CCC(C)C)C(=O)c1ccc2nc(C3CCC(=O)NC3)n(CCCN3CCCC3)c2c1 (stereo not shown) [Example 35]
hMC-4R [1]
  pIC50: > 6.00
hMC-4R [2]
  Emax: -11%

## CC(C)CCN(CCC(C)C)C(=O)c1ccc2nc(C3CCN(C(=O)OC(C)(C)C)CC3)n(CCCN3CCCC3C)c2c1 (stereo not shown) [Example 12]
hMC-4R [1]
  pIC50: > 7.00
hMC-4R [2]
  pEC50: > 7.00
  Emax: -40%

## CC(C)CCN(CCC(C)C)C(=O)c1ccc2nc(CN3CCN(C(C)C)CC3)n(CCCN3CCCC3)c2c1 [Example 10]
hMC-4R [1]
  pIC50: > 6.00
hMC-4R [2]
  Emax: 0%

## CC(C)CCN(CCC(C)C)C(=O)c1ccc2nc(-c3ncco3)n(CC(O)CN3CCCC3)c2c1 (stereo not shown) [Example 4]
hMC-4R [1]
  pIC50: > 7.00
hMC-4R [2]
  pEC50: > 7.00
  Emax: -28%

## CC(C)CCN(CCC(C)C)C(=O)c1ccc2nc(CC3CCN(C4COC4)CC3)n(CCCN3CCCC3)c2c1 [Example 15]
hMC-4R [1]
  pIC50: > 7.00
hMC-4R [2]
  Emax: -11%

## CC(C)CCN(CCC(C)C)C(=O)c1ccc2nc(-c3ccc(=O)[nH]c3)n(CC(F)CN3CCCC3)c2c1 (stereo not shown) [Example 2]
hMC-4R [1]
  pIC50: > 7.00
hMC-4R [2]
  Emax: -11%

## CC(C)CCN(CCC(C)C)C(=O)c1ccc2nc(CN3CCN(C)CC3)n(CCCN3CCCC3)c2c1 [Example 8]
hMC-4R [1]
  IC50: < 0.1 µM
hMC-4R [2]
  Emax: -6%

## CC(C)CCN(CCC(C)C)C(=O)c1ccc2nc(-c3ccc(=O)[nH]c3)n(CCCN3CCCC3C)c2c1 (stereo not shown) [Example 25]
hMC-4R [1]
  pIC50: > 7.00
hMC-4R [2]
  pEC50: > 7.00
  Emax: -37%

## CC(C)CCN(CCC(C)C)C(=O)c1ccc2nc(CN3CCN(CCO)CC3)n(CCCN3CCCC3)c2c1 [Example 9]
hMC-4R [1]
  pIC50: > 7.00
hMC-4R [2]
  Emax: -9%

## COc1ccc(C2(c3nc4ccc(C(=O)N(CCC(C)C)CCC(C)C)cc4n3CCCN3CCCC3)CC2)cn1 [Example 6]
hMC-4R [1]
  pIC50: > 6.00
hMC-4R [2]
  Emax: -11%

## CC(C)CCN(CCC(C)C)C(=O)c1ccc2nc(C3CCN(C)CC3)n(CCCN3CCCC3C)c2c1 (stereo not shown) [Example 27]
hMC-4R [1]
  IC50: < 0.1 µM
hMC-4R [2]
  Emax: -2%

## CC(C)CCN(CCC(C)C)C(=O)c1ccc2nc([C@H]3CC[C@H](N(C)C)CC3)n(CCCN3CCCC3)c2c1 [Example 17]
hMC-4R [1]
  pIC50: > 7.00
hMC-4R [2]
  Emax: -6%

## CC(C)CCN(CCC(C)C)C(=O)c1ccc2nc(-c3cnc(O)nc3)n(CCCN3CCCC3)c2c1 [Example 30]
hMC-4R [1]
  pIC50: > 6.00
hMC-4R [2]
  Emax: -12%

## CCCCN(CCCC)C(=O)c1ccc2nc(CC3CCN(C4COC4)CC3)n(CCCN3CCCC3)c2c1 [Example 20]
hMC-4R [1]
  pIC50: > 6.00
hMC-4R [2]
  Emax: 0%

## CCCCN(CCCC)C(=O)c1ccc2nc(CC3CCNCC3)n(CCCN3CCCC3)c2c1 [Example 38]
hMC-4R [1]
  pIC50: > 7.00
hMC-4R [2]
  Emax: -5%

## CC(C)CCN(CCC(C)C)C(=O)c1ccc2nc(CC3CCN(C)CC3)n(CCCN3CCCC3)c2c1 [Example 29]
hMC-4R [1]
  pIC50: > 7.00
hMC-4R [2]
  Emax: -10%

## CCCCN(CCCC)C(=O)c1ccc2nc(CC3CCN(C)CC3)n(CCCN3CCCC3)c2c1 [Example 39]
hMC-4R [1]
  pIC50: > 7.00
hMC-4R [2]
  Emax: -8%

## CC(C)CCN(CCC(C)C)C(=O)c1ccc2nc(C3CNC3)n(CCCN3CCCC3)c2c1 [Example 31]
hMC-4R [1]
  pIC50: > 7.00
hMC-4R [2]
  pEC50: 6.00 to 7.00
  Emax: -32%

## CC(C)CCN(CCC(C)C)C(=O)c1ccc2nc(C3CCNCC3)n(CCCN3CCCC3C)c2c1 (stereo not shown) [Example 26]
hMC-4R [1]
  pIC50: > 7.00
hMC-4R [2]
  Emax: -12%

## CC(C)CCN(CCC(C)C)C(=O)c1ccc2nc(C3CCN(C(=O)OC(C)(C)C)CC3)n(CCCN3CCCC3)c2c1 [Example 11]
hMC-4R [1]
  pIC50: > 7.00
hMC-4R [2]
  pEC50: > 7.00
  Emax: -33%

## CC(C)CCN(CCC(C)C)C(=O)c1ccc2nc(CC3CCNCC3)n(CCCN3CCCC3)c2c1 [Example 28]
hMC-4R [1]
  IC50: < 0.1 µM
hMC-4R [2]
  Emax: -6%

## CCCCN(CCCC)C(=O)c1ccc2nc(CC3CCN(C(=O)OC(C)(C)C)CC3)n(CCCN3CCCC3)c2c1 [Example 19]
hMC-4R [1]
  pIC50: > 7.00
hMC-4R [2]
  pEC50: > 7.00
  Emax: -33%

## CC(C)CCN(CCC(C)C)C(=O)c1ccc2nc(N3CCN(C)CC3)n(CCCN3CCCC3)c2c1 [Example 7]
hMC-4R [1]
  pIC50: 5.00 to 6.00
hMC-4R [2]
  Emax: -4%

## CC(C)CCN(CCC(C)C)C(=O)c1ccc2nc(C3CCC(=O)N(C)C3)n(CCCN3CCCC3)c2c1 (stereo not shown) [Example 37]
hMC-4R [1]
  pIC50: > 6.00
hMC-4R [2]
  Emax: -2%

## CC(C)CCN(CCC(C)C)C(=O)c1ccc2nc(-c3ccc(=O)[nH]c3)n(CC(O)CN3CCCC3)c2c1 (stereo not shown) [Example 1]
hMC-4R [1]
  pIC50: > 6.00
hMC-4R [2]
  Emax: -15%

## CC(C)CCN(CCC(C)C)C(=O)c1ccc2nc(C3CCNCC3)n(CCCN3CCCC3)c2c1 [Example 23]
hMC-4R [1]
  pIC50: > 7.00
hMC-4R [2]
  pEC50: > 7.00
  Emax: -39%

## CC(C)CCN(CCC(C)C)C(=O)c1ccc2nc(C3CNC(=O)C3)n(CCCN3CCCC3)c2c1 (stereo not shown) [Example 34]
hMC-4R [1]
  pIC50: > 7.00
hMC-4R [2]
  Emax: -10%

## CC(C)CCN(CCC(C)C)C(=O)c1ccc2nc([C@H]3CC[C@@H](N(C)C)CC3)n(CCCN3CCCC3)c2c1 [Example 18]
hMC-4R [1]
  pIC50: > 7.00
hMC-4R [2]
  Emax: -19%

## COc1cc(C2(c3nc4ccc(C(=O)N(CCC(C)C)CCC(C)C)cc4n3CCCN3CCCC3)CC2)ccn1 [Example 5]
hMC-4R [1]
  pIC50: > 6.00
hMC-4R [2]
  Emax: -6%
